Consider 24 molecules from patent US10543212B2, “Substituted amines for treating cardiac diseases” (Cardurion Pharmaceuticals, LLC, priority 2017, dated 2020).

T1 sequence (Q13557 1-478 isoform Q13557-12): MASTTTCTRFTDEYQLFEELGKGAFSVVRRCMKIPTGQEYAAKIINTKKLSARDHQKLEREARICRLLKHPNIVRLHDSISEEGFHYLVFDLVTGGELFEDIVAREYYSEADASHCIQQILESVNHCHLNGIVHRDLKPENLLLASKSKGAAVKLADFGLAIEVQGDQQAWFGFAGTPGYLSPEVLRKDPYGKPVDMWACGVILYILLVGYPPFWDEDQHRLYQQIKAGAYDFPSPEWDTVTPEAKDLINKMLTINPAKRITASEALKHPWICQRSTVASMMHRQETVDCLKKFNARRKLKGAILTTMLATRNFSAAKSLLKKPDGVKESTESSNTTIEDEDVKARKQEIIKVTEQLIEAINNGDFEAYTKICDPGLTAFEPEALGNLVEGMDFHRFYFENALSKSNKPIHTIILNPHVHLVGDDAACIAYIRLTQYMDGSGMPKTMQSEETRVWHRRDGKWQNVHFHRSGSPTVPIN

The test addresses T1, Full-length, GST-tagged, human CaMKIIδ (Homo sapiens, UniProt Q13557).
T1 construct: Full-Length, Glutathione-S-Transferase(GST)-Tagged, Human CaMKIIδ was purchased from Carna Biosciences; purchased Carna Biosciences 02-111
The experiment in a line: CaMKIIδ binding assay (TR-FRET with BODIPY-labeled probe ligand). As to conditions: Table 2; activity class for CaMKIIδ. An outline of the steps: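 Compounds were tested as 4-fold, eight-point series for 1 hr at room temperature, and IC50 was obtained by logistic fitting against a 3 μM parent-compound control. Signal came from displacement of a 300 nM BODIPY ligand from 0.5 nM GST-CaMKIIδ, detected via Tb-anti-GST in calmodulin/Ca2+ (pH 7.6).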
One may read the IC50 as the concentration needed to halve the response being measured. A high value points to a need for much substance. `C[C@@H](Cn1cnnn1)Oc1cc(-c2cnc(Nc3cn(C4CCNCC4)nc3OCC(F)(F)F)nc2)ccc1Cl` [Example 676, (S)-5-(3-((1-(1H-tetrazol-1-yl)propan-2-yl)oxy)-4-chlorophenyl)-N-(1-(piperidin-4-yl)-3-(2,2,2-trifluoroethoxy)-1H-pyrazol-4-yl)pyrimidin-2-amine] displayed an IC50 of less than 10 nM.
The result for `C[C@@H](Cn1cnnn1)Oc1cc(-c2cnc(Nc3cn(C4CCCCO4)nc3OCC(F)(F)F)nc2)ccc1Cl` (stereo partly drawn) [Example 678, 5-(3-(((S)-1-(1H-tetrazol-1-yl)propan-2-yl)oxy)-4-chlorophenyl)-N-(1-(tetrahydro-2H-pyran-2-yl)-3-(2,2,2-trifluoroethoxy)-1H-pyrazol-4-yl)pyrimidin-2-amine] reads less than 10 nM; that for `CNC(=O)C1CN(c2ccc(OC)c(Nc3ncc(-c4ccc(Cl)c(O[C@@H](C)Cn5cnnn5)c4)cn3)c2)C1` [Example 679, (S)-1-(3-((5-(3-((1-(1H-tetrazol-1-yl)propan-2-yl)oxy)-4-chlorophenyl)pyrimidin-2-yl)amino)-4-methoxyphenyl)-N-methylazetidine-3-carboxamide], less than 10 nM; that for `C[C@@H](Cn1cnnn1)Oc1cc(-c2cnc(Nc3cn(C4CCC(=O)CC4)nc3C(F)(F)F)nc2)ccc1Cl` [Example 680, (S)-4-(4-((5-(3-((1-(1H-tetrazol-1-yl)propan-2-yl)oxy)-4-chlorophenyl)pyrimidin-2-yl)amino)-3-(trifluoromethyl)-1H-pyrazol-1-yl)cyclohexan-1-one], 10 to 100 nM.
With `COc1ccc(C(=O)N2CCN(CC3CC3)CC2)cc1Nc1ncc(-c2ccc(Cl)c(O[C@@H](C)Cn3cnnn3)c2)cn1` [Example 681, (S)-(3-((5-(3-((1-(1H-tetrazol-1-yl)propan-2-yl)oxy)-4-chlorophenyl)pyrimidin-2-yl)amino)-4-methoxyphenyl) (4-(cyclopropylmethyl)piperazin-1-yl)methanone], the IC50 is less than 10 nM.
The result for `C[C@@H](Cn1cnnn1)Oc1cc(-c2cnc(Nc3cc(C4CCN(C5COC5)CC4)c(F)cc3F)nc2)ccc1Cl` [Example 684, (S)-5-(3-((1-(1H-tetrazol-1-yl)propan-2-yl)oxy)-4-chlorophenyl)-N-(2,4-difluoro-5-(1-(oxetan-3-yl)piperidin-4-yl)phenyl)pyrimidin-2-amine] reads 10 to 100 nM.
As to `COc1ccc(N2CCN(CC(N)=O)CC2)cc1Nc1ncc(-c2ccc(Cl)c(O[C@@H](C)Cn3cnnn3)c2)cn1` [Example 686, (S)-2-(4-(3-((5-(3-((1-(1H-tetrazol-1-yl)propan-2-yl)oxy)-4-chlorophenyl)pyrimidin-2-yl)amino)-4-methoxyphenyl)piperazin-1-yl)acetamide], the 50% inhibitory concentration (IC50) is less than 10 nM.
Molecule `COc1cc(N2CCOC(CN(C)C)C2)ccc1Nc1ncc(-c2ccc(Cl)c(O[C@@H](C)Cn3cnnn3)c2)cn1` (stereo partly drawn) [Example 688, 5-(3-(((S)-1-(1H-tetrazol-1-yl)propan-2-yl)oxy)-4-chlorophenyl)-N-(4-(2-((dimethylamino)methyl)morpholino)-2-methoxyphenyl)pyrimidin-2-amine] displayed an IC50 of less than 10 nM.
Take `COc1cc(N2CCCN(C3CCOCC3)CC2)ccc1Nc1ncc(-c2ccc(Cl)c(O[C@@H](C)Cn3cnnn3)c2)cn1` [Example 693, (S)-5-(3-((1-(1H-tetrazol-1-yl)propan-2-yl)oxy)-4-chlorophenyl)-N-(2-methoxy-4-(4-(tetrahydro-2H-pyran-4-yl)-1,4-diazepan-1-yl)phenyl)pyrimidin-2-amine]: the half-inhibitory concentration (IC50) was less than 10 nM.
The result for `C[C@@H](Cn1cnnn1)Oc1cc(-c2cnc(Nc3cn(C4CN(C(=O)OC(C)(C)C)C4)nc3C(F)(F)F)nc2)ccc1Cl` [Example 696, tert-butyl (S)-3-(4-((5-(3-((1-(1H-tetrazol-1-yl)propan-2-yl)oxy)-4-chlorophenyl)pyrimidin-2-yl)amino)-3-(trifluoromethyl)-1H-pyrazol-1-yl)azetidine-1-carboxylate] reads 10 to 100 nM.
The result for `C[C@@H](Cn1cnnn1)Oc1cc(-c2cnc(Nc3cn(C4CNC4)nc3C(F)(F)F)nc2)ccc1Cl` [Example 697, (S)-5-(3-((1-(1H-tetrazol-1-yl)propan-2-yl)oxy)-4-chlorophenyl)-N-(1-(azetidin-3-yl)-3-(trifluoromethyl)-1H-pyrazol-4-yl)pyrimidin-2-amine] reads less than 10 nM.
The result for `C[C@@H](Cn1cnnn1)Oc1cc(-c2cnc(Nc3cn(C4CN(C5CCOCC5)C4)nc3C(F)(F)F)nc2)ccc1Cl` [Example 698, (S)-5-(3-((1-(1H-tetrazol-1-yl)propan-2-yl)oxy)-4-chlorophenyl)-N-(1-(1-(tetrahydro-2H-pyran-4-yl)azetidin-3-yl)-3-(trifluoromethyl)-1H-pyrazol-4-yl)pyrimidin-2-amine] reads less than 10 nM.
`C[C@@H](Cn1cnnn1)Oc1cc(-c2cnc(Nc3cn(C4CN(C5COC5)C4)nc3C(F)(F)F)nc2)ccc1Cl` [Example 699, (S)-5-(3-((1-(1H-tetrazol-1-yl)propan-2-yl)oxy)-4-chlorophenyl)-N-(1-(1-(oxetan-3-yl)azetidin-3-yl)-3-(trifluoromethyl)-1H-pyrazol-4-yl)pyrimidin-2-amine] came in with an IC50 of 10 to 100 nM.
The result for `CCn1cc(Nc2ncc(-c3ccc(Cl)c(O[C@@H](C)Cn4cnnn4)c3)cn2)c(OCC(F)(F)F)n1` [Example 700, (S)-5-(3-((1-(1H-tetrazol-1-yl)propan-2-yl)oxy)-4-chlorophenyl)-N-(1-ethyl-3-(2,2,2-trifluoroethoxy)-1H-pyrazol-4-yl)pyrimidin-2-amine] reads less than 10 nM; that for `C[C@@H](Cn1cnnn1)Oc1cc(-c2cnc(Nc3cn([C@@H]4C[C@H]5CC[C@@H](C4)N5C(=O)OC(C)(C)C)nc3C(F)(F)F)nc2)ccc1Cl` [Example 701, tert-butyl (1R,3s,5S)-3-(4-((5-(3-(((S)-1-(1H-tetrazol-1-yl)propan-2-yl)oxy)-4-chlorophenyl)pyrimidin-2-yl)amino)-3-(trifluoromethyl)-1H-pyrazol-1-yl)-8-azabicyclo[3.2.1]octane-8-carboxylate], no less than 100 nM; that for `C[C@@H](Cn1cnnn1)Oc1cc(-c2cnc(Nc3cn([C@@H]4C[C@H]5CC[C@@H](C4)N5)nc3C(F)(F)F)nc2)ccc1Cl` [Example 702, 5-(3-(((S)-1-(1H-tetrazol-1-yl)propan-2-yl)oxy)-4-chlorophenyl)-N-(1-((1R,3s,5S)-8-azabicyclo[3.2.1]octan-3-yl)-3-(trifluoromethyl)-1H-pyrazol-4-yl)pyrimidin-2-amine], less than 10 nM.
As to `C[C@@H](Cn1cnnn1)Oc1cc(-c2cnc(Nc3cn([C@@H]4C[C@H]5CC[C@@H](C4)N5C4CCOCC4)nc3C(F)(F)F)nc2)ccc1Cl` [Example 703, 5-(3-(((S)-1-(1H-tetrazol-1-yl)propan-2-yl)oxy)-4-chlorophenyl)-N-(1-((1R,3s,5S)-8-(tetrahydro-2H-pyran-4-yl)-8-azabicyclo[3.2.1]octan-3-yl)-3-(trifluoromethyl)-1H-pyrazol-4-yl)pyrimidin-2-amine], the half-inhibitory concentration (IC50) is less than 10 nM.
The result for `C[C@@H](Cn1cnnn1)Oc1cc(-c2cnc(Nc3cc(N4CCN(C5CCOCC5)CC4)ncc3OC(F)(F)F)nc2)ccc1Cl` [Example 705, (S)-5-(3-((1-(1H-tetrazol-1-yl)propan-2-yl)oxy)-4-chlorophenyl)-N-(2-(4-(tetrahydro-2H-pyran-4-yl)piperazin-1-yl)-5-(trifluoromethoxy)pyridin-4-yl)pyrimidin-2-amine] reads less than 10 nM; that for `C[C@@H](Cn1cnnn1)Oc1cc(-c2cnc(Nc3cn(C4CCN(C5CCOCC5)CC4)nc3C(F)(F)F)nc2)ccc1Cl` [Example 706, (S)-5-(3-((1-(1H-tetrazol-1-yl)propan-2-yl)oxy)-4-chlorophenyl)-N-(1-(1-(tetrahydro-2H-pyran-4-yl)piperidin-4-yl)-3-(trifluoromethyl)-1H-pyrazol-4-yl)pyrimidin-2-amine], less than 10 nM.
`C[C@@H](Cn1cnnn1)Oc1cc(-c2cnc(Nc3cn(Cc4ccccn4)nc3C(F)(F)F)nc2)ccc1Cl` [Example 707, (S)-5-(3-((1-(1H-tetrazol-1-yl)propan-2-yl)oxy)-4-chlorophenyl)-N-(1-(pyridin-2-ylmethyl)-3-(trifluoromethyl)-1H-pyrazol-4-yl)pyrimidin-2-amine]: the IC50 was 10 to 100 nM.
`C[C@@H](Cn1cnnn1)Oc1cc(-c2cnc(Nc3cn(Cc4cccnc4)nc3C(F)(F)F)nc2)ccc1Cl` [Example 708, (S)-5-(3-((1-(1H-tetrazol-1-yl)propan-2-yl)oxy)-4-chlorophenyl)-N-(1-(pyridin-3-ylmethyl)-3-(trifluoromethyl)-1H-pyrazol-4-yl)pyrimidin-2-amine] displayed an IC50 of 10 to 100 nM.
`C[C@@H](Cn1cnnn1)Oc1cc(-c2cnc(Nc3cn(Cc4ccncc4)nc3C(F)(F)F)nc2)ccc1Cl` [Example 709, (S)-5-(3-((1-(1H-tetrazol-1-yl)propan-2-yl)oxy)-4-chlorophenyl)-N-(1-(pyridin-4-ylmethyl)-3-(trifluoromethyl)-1H-pyrazol-4-yl)pyrimidin-2-amine] gave an IC50 of 10 to 100 nM.
For the molecule `C[C@@H](Cn1cnnn1)Oc1cc(-c2cnc(Nc3cn(CC4CCCO4)nc3C(F)(F)F)nc2)ccc1Cl` (stereo partly drawn) [Example 710, 5-(3-(((S)-1-(1H-tetrazol-1-yl)propan-2-yl)oxy)-4-chlorophenyl)-N-(1-((tetrahydrofuran-2-yl)methyl)-3-(trifluoromethyl)-1H-pyrazol-4-yl)pyrimidin-2-amine], the IC50 was in the range of 10 to 100 nM.
The result for `C[C@@H](Cn1cnnn1)Oc1cc(-c2cnc(Nc3cc(C(F)(F)F)n(C)n3)nc2)ccc1Cl` [Example 711, (S)-5-(3-((1-(1H-tetrazol-1-yl)propan-2-yl)oxy)-4-chlorophenyl)-N-(1-methyl-5-(trifluoromethyl)-1H-pyrazol-3-yl)pyrimidin-2-amine] reads no less than 100 nM.
